In series [1] the target is T1, FGFR-1 (Homo sapiens, UniProt P11362).
T1 construct: purchased BPS Biosciences 40210
Put plainly: FGFR-1 kinase assay kit (BPS), Kinase-Glo Max luminescence. Type of series: biochemical. As to the method: (§1) 2. Biochemical kinase assay procedure
The inhibitory activity against different kinases was determined using kinase kits (VEGFR-2 cat ID: 40325), (FGFR-1 cat ID: 40210), (BRAF (WT) cat. ID: 78316); purchased from BPS Biosciences and kinase-Glo Max luminescence kinase assay kit (Promega).
(§2) The assay was carried out according to the protocol provided by the manufacturer. A stock solution of the synthesized derivatives in 100% DMSO was prepared. Subsequently, the compounds were diluted to 10% DMSO.
(§3) A master mixture was prepared according to the number of wells. For VEGFR-2 and FGFR-1 biochemical assays each well include 6 μl of 5x Kinase Buffer 1 + 1 μl of 500 μM ATP + 1 μl of PTK Substrate (Poly-Glu,Tyr 4:1) (10 mg/ml) + 17 μl of distilled water. […]
(§4) The plate was incubated at 30 °C for 45 min. Subsequently, 50 μl of Kinase-Glo Max luminescence reagent was added to each well and the plate was covered with aluminum foil and incubated at room temperature 15 min. Finally, the luminescence was recorded using multimode microplate reader. […]
(§5) The luminescence data were analyzed as follows. The difference between luminescence intensities in the absence of kinase (Lut) and in the presence of kinase (Luc) was defined as 100 % activity (Lut – Luc). Using luminescence signal (Lu) in the presence of the compound, % activity was calculated as: % activity = {(Lut - Lu)/(Lut - Luc)}×100%. […]
A general note: Kinase-Glo reads ATP consumption through a luciferase reaction.

Series [2] concerns MCF-7 cells. The series is described as follows: Annexin V-FITC apoptosis assay. As to conditions: MCF-7, at GI50 concentration. It counts as cell-based. As to the method: As previously reported, the Annexin V-FITC apoptosis detection kit (Abcam Inc., Cambridge, UK) in conjunction with two fluorescent channels flow cytometry was used to identify the populations of apoptosis and necrosis cells. (For further details see Additional file 1: section II: practical results). […]
(§6) MCF-7: Breast Adenocarcinoma was obtained from Nawah Scientific Inc., (Mokatam, Cairo, Egypt). Cells were maintained in DMEM media supplemented with […] of streptomycin, 100 units/mL of penicillin and 10% of heat-inactivated fetal bovine serum in humidified, 5% (v/v) CO2 atmosphere at 37 °C. […]
Biosciences Inc., San Diego, CA, USA). […]
Apoptosis and necrosis cell populations are determined using Annexin V-FITC apoptosis detection kit (Abcam Inc., Cambridge Science Park, Cambridge, UK) coupled with 2 fluorescent channels flowcytometry. After treatment with test compounds for 48h, cells (105 […]
trypsinization and washed twice with ice-cold PBS (pH 7.4). Then, cells are incubated in dark with 0.5 ml of Annexin V-FITC/PI solution for 30 min in dark at room temperature according to manufacturer protocol. After staining, cells are injected via ACEA

Series [3] concerns the target T2, BRAF (WT) (Homo sapiens, UniProt P15056).
T2 construct: purchased BPS Biosciences 78316
The series is described as follows: BRAF kinase assay kit (BPS), Kinase-Glo Max luminescence. It counts as biochemical. As to the method:
as §1
The inhibitory activity against different kinases was determined using kinase kits […]
from BPS Biosciences and kinase-Glo Max luminescence kinase assay kit (Promega).
as §2, §3, §4, §5

Series [4] concerns MCF-7 cells. The series is described as follows: Cell cycle analysis by PI flow cytometry. Type of series: cell-based. As to conditions: MCF-7, at GI50 concentration. On the procedure: After the cells were handled as previously described, the distribution of the cells at each stage of the cell cycle was analysed. (For further details see Additional file 1: section II: practical results).
6. Analysis of Cell Cycle Distribution
as §6
cells) are collected by trypsinization and washed twice with ice-cold PBS (pH 7.4). Cells are re-suspended in two milliliters of 60% ice-cold ethanol and incubated at 4 °C for 1 h for fixation. Fixed cells are washed twice again with PBS (pH 7.4) and re-suspended in 1 mL of PBS containing 50 µg/mL RNAase A and 10 µg/mL propidium iodide (PI). After 20 min of incubation in dark at 37 C, cells are analyzed for DNA contents using flow cytometry analysis using FL2 (λex/em 535/617 nm) signal detector (ACEA Novocyte™ flowcytometer, ACEA Biosciences Inc., San Diego, CA, USA). For each sample, 12,000 events are acquired.
Cell cycle distribution is calculated using ACEA NovoExpress™ software (ACEA Biosciences Inc., San Diego, CA, USA).
*G0/G1-phase: This phase denotes the non-proliferating cells. Compounds with antiproliferative effect (regardless of their cytotoxicity) are expected to increase this cell […]
*S-phase: This phase denotes proliferating cells and particularly the cells who are undergoing DNA synthesis step of replication. Some compounds might induce S-phase […]
*G2/M-phase: This phase indicates the final phase of cell replication (mitosis). […]
On the technique in general: In flow cytometry, cells or beads pass a laser one at a time.

T2 sequence (P15056 whole entry): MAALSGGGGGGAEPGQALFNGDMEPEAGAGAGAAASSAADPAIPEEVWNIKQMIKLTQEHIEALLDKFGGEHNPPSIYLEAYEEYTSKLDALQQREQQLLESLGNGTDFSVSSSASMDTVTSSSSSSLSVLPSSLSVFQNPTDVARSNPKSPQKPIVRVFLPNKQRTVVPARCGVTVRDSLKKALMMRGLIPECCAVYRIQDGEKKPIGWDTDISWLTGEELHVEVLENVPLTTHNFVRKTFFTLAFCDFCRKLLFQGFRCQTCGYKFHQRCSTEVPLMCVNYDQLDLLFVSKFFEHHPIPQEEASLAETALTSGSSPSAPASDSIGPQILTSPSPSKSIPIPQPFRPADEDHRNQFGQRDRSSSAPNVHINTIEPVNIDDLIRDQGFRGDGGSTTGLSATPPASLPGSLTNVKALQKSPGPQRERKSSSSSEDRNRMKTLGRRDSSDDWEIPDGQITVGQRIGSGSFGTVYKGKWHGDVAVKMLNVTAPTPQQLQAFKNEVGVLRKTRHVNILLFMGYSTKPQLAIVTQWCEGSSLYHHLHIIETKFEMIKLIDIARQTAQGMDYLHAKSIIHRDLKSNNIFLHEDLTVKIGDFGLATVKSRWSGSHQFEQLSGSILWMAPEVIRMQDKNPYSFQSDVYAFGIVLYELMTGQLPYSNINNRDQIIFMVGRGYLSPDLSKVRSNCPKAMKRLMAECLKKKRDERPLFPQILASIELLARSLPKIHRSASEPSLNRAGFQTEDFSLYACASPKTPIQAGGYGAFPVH
T1 sequence (P11362 22-822): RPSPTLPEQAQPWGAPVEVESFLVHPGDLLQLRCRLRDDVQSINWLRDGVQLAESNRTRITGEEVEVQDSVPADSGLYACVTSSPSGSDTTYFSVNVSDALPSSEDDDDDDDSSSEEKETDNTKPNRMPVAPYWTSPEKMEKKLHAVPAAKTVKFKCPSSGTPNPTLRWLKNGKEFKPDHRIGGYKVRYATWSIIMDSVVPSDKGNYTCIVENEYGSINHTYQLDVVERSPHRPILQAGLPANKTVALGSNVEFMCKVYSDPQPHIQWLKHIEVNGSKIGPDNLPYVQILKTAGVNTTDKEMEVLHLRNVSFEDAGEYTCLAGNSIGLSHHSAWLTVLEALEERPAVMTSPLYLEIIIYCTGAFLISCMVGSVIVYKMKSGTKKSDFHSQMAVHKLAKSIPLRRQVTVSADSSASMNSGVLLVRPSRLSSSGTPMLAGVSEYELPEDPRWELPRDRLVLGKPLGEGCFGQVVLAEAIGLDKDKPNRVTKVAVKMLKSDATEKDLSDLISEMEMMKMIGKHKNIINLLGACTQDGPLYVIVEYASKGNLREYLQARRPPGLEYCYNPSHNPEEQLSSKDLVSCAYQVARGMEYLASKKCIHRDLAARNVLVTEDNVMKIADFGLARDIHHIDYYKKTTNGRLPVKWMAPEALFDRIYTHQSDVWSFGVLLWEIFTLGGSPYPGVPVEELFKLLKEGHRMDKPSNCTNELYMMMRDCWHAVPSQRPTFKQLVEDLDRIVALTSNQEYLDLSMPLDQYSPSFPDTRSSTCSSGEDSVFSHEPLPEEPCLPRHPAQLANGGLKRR

In general, IC50 refers to the concentration at which inhibition is half-maximal. A lower IC50 goes with greater potency in that assay. As to `COc1cc(C=NNC(=O)c2ccc3[nH]c(-c4ccc(Cl)cc4)nc3c2)cc(OC)c1OC` [8u, 2-(4-Chlorophenyl)-N'-(3,4,5-trimethoxybenzylidene)-1H-benzo[d]imidazole-5-carbohydrazide], half-maximal inhibition in series [1] (IC50) was put at 3740 ± 340 nM. Besides, the apoptosis induction entry in series [2] was “induces cell apoptosis in MCF-7 cell line”. In series [2] (48h), the “% necrotic cells (Q2-1)” value is on record as 1.09% and the “% viable cells (Q2-3)” value came out at 92.92%. Further, in series [2] (48h, control 0.25%), the “% of cells in early apoptosis (Q2-4)” value was 1.46%. In series [2] (48h, control 2.36%), the “% of cells in late apoptosis (Q2-2)” value came out at 4.54%. In addition, half-maximal inhibition in series [3] (IC50) was put at 250 ± 30 nM. The cell cycle arrest entry in series [4] is given as “arrests the MCF-7 cell line at the G2/M phase”. The “%Sub-G1” value in series [4] (48h, control 2.64) amounted to 4.40%. Also, the “%G2/M” value in series [4] (48h, control 20.60) came out at 25.57%. Besides, the “%S” value in series [4] (48h, control 23.10) is 29.11%. Besides, the “%G0/G1” value in series [4] (48h, control 56.30) is 45.32%.

Source of the values: article PMC10893631, “Receptor-based pharmacophore modeling, molecular docking, synthesis and biological evaluation of novel VEGFR-2, FGFR-1, and BRAF multi-kinase inhibitors” (BMC Chemistry, 2024).
